Assay results published in ChEMBL document CHEMBL1201862, “PubChem BioAssay data set” (2004).
Activity calls are given as the source filed them.

How the values were obtained:
[1] = target: Mitogen-activated protein kinase 10 (Homo sapiens, UniProt P53779); experiment: Dose response biochemical screening assay for inhibitors of c-Jun N-Terminal Kinase 3 (JNK3). [Related pubchem assays: 746 ]
[2] = target: T1, Oxysterols receptor LXR-beta (Homo sapiens, UniProt P55055); experiment: LXR agonists, Gal4 luciferase reporter, dose response, counter-screen for ssDAF-12 agonist project, cell-based, luminescence, HEK293, S. stercoralis campaign (AID 720737); assay type: functional; conditions: read-out: IC50 (the source's name)
T1 sequence (P55055 whole entry): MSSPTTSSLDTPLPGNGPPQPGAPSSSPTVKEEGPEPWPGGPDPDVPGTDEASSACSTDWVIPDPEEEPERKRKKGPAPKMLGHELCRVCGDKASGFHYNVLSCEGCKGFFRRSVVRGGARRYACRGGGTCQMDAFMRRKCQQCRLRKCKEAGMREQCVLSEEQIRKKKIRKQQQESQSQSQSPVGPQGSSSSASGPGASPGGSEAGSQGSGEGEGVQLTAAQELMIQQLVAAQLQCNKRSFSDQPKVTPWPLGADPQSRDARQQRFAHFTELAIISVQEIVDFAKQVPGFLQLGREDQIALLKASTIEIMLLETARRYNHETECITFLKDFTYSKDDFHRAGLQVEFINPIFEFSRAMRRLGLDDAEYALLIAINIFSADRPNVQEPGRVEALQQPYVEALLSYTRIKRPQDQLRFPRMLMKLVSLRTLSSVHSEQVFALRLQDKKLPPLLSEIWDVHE

[3] = Luminescence-based cell-based high throughput dose response assay to identify activators of the DAF-12 from the parasite S. stercoralis (ssDAF-12).; assay type: functional
Cytochrome P450 2C19 [4] = target: T2, Cytochrome P450 2C19 (Homo sapiens, UniProt P33261); experiment: qHTS Assay for Inhibitors and Substrates of Cytochrome P450 2C19. [Related pubchem assays: 410 ]; assay type: ADME; conditions: read-out: Potency
T2 sequence (P33261 whole entry): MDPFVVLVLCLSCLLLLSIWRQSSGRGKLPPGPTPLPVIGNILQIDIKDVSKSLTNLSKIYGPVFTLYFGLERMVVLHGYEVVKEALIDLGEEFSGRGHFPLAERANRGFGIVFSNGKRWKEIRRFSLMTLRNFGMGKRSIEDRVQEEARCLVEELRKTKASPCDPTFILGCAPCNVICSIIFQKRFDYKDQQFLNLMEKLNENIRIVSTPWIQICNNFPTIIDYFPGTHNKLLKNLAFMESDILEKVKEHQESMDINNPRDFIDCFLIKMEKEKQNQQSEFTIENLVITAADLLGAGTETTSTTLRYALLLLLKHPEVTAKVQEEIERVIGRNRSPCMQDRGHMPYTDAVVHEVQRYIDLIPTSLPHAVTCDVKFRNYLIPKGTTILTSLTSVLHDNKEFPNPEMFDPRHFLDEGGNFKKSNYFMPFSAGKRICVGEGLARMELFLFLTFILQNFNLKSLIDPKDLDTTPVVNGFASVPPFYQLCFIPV

[5] = Trypanosoma cruzi growth suppression in host cells – NIH3T3 host cells, beta-gal luminescence, confirmation (AID 2044); assay type: functional, cell-based;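 further: intracellular parasites grown in NIH/3T3 mouse fibroblasts as host cells; luminescent beta-galactosidase reporter signal from transgenic T. cruzi replicating inside host cells; inhibitors lower the luminescence signal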
cells [6] = experiment: cells
[7] = NIH3T3 cell viability loss – ATP luminescence, mouse fibroblasts, counter-screen, dose response (AID 2010); assay type: functional, cell-based;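 further: cells exposed to compound for about 90 hours before reading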
[8] = target: T3, Dual specificity protein phosphatase 6 (Rattus norvegicus, UniProt Q64346); experiment: inhibition of rat DUSP6 enzyme activity – biochemical, in vitro, primary screen (AID 425)
T3 sequence (Q64346 whole entry): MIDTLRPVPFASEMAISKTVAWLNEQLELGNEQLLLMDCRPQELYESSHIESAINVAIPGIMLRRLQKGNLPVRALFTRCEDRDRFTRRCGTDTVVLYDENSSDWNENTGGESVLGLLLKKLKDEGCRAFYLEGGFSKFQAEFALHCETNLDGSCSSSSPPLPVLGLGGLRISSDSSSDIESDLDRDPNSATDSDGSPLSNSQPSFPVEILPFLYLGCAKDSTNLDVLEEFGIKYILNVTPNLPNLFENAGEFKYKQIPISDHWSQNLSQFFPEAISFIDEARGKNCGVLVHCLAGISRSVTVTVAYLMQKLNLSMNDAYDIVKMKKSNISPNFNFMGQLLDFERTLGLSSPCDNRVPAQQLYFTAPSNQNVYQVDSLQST

[9] = target: T1, Oxysterols receptor LXR-beta; assay type: functional, cell-based
cells [10] = experiment: cells; remark: listed apart in the source
[11] = target: Peroxisome proliferator-activated receptor gamma/Nuclear receptor coactivator 3 (Homo sapiens, UniProt P37231); assay type: functional;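 further: agonist potency for raising coactivator recruitment to the receptor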
[12] = target: Peroxisome proliferator-activated receptor gamma/Nuclear receptor coactivator 1 (Homo sapiens, UniProt P37231); assay type: functional;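 further: agonist potency as compounds enhance coactivator SRC-1 recruitment to PPARgamma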
Sequence of Peroxisome proliferator-activated receptor gamma/Nuclear receptor coactivator 1 (P37231 whole entry): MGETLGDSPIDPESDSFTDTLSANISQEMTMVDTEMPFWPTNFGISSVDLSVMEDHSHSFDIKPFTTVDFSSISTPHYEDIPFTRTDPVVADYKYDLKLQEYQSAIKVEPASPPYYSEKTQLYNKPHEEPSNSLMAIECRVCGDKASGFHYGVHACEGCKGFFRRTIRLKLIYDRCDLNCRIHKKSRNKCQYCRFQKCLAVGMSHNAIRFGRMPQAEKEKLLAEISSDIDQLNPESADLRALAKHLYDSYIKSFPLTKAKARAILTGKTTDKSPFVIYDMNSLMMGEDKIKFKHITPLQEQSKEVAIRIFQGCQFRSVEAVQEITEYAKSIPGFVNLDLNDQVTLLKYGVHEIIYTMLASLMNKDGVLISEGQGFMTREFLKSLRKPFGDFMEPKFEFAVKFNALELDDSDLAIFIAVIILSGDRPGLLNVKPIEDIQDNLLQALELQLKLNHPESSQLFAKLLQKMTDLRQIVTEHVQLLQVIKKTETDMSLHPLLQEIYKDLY
Sequence of Peroxisome proliferator-activated receptor gamma/Nuclear receptor coactivator 1 (Q15788 whole entry, further chain): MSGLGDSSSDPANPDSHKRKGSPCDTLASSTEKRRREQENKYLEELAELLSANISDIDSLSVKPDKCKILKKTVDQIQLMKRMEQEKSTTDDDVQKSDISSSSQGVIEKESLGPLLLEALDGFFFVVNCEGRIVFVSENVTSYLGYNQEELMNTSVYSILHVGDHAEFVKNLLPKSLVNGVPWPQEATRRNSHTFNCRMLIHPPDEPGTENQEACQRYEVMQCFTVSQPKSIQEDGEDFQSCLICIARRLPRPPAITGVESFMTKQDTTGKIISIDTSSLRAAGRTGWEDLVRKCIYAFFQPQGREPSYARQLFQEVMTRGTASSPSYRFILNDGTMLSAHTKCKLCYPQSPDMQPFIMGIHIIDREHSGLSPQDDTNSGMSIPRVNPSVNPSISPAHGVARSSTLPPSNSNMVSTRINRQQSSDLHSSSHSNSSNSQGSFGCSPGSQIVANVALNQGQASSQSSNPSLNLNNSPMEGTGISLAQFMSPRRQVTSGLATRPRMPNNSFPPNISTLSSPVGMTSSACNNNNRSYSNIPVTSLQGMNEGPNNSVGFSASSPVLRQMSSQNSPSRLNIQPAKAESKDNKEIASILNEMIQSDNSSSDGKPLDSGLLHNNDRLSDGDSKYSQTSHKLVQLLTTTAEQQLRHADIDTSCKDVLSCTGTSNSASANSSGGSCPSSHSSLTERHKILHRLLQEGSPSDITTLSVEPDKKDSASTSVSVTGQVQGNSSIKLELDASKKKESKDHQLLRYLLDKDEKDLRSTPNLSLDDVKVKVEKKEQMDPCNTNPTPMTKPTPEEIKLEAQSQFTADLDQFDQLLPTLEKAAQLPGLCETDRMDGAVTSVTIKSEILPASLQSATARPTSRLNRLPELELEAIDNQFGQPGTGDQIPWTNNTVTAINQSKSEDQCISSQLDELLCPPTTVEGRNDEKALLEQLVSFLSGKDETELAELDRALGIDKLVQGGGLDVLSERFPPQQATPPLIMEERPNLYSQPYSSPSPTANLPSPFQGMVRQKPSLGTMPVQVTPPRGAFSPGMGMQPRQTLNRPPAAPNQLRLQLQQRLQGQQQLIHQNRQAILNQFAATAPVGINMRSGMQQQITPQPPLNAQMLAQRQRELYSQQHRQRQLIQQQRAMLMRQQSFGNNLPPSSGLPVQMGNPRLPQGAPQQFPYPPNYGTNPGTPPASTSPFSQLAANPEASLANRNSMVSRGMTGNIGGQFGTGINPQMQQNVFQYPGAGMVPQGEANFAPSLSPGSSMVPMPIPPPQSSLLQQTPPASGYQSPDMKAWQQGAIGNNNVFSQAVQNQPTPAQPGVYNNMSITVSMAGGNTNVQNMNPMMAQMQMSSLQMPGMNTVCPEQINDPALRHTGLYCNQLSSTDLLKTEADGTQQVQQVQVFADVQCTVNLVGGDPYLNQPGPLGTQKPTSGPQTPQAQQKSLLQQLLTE

Cytochrome P450 2C19 [13] = target: T2, Cytochrome P450 2C19; experiment: Cytochrome panel assay with activity outcomes. Panel member name: p450-cyp2c19 Compounds with AC50 equal or less than 10 uM are considered active; assay type: functional; conditions: read-out: AC50
[14] = blockade of melanocortin 4 receptor signaling – cell-based, plate reader, cherry pick, counter-screen for LGR2 antagonist project, dose response (AID 743444); assay type: functional;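 further: transfected HEK 293 cells stimulated with alpha-MSH peptide; potency of inhibitors of the alpha-MSH evoked signal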
[15] = toxicity toward HepG2 liver cells – cell-based, plate reader, cherry-pick, antagonist series, cytotoxicity control, dose response (AID 743416); assay type: functional
[16] = A549 cell cytotoxicity, dose response, cytotoxicity control, plate reader, cherry-pick, antagonist series (AID 743412); assay type: functional, cell-based
Cytochrome P450 2D6 = Cytochrome P450 2D6 (Homo sapiens, UniProt P10635);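 further: CYP2D6 member of a cytochrome P450 panel assay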
[17] = target: Peroxisome proliferator-activated receptor gamma/Nuclear receptor coactivator 2 (Homo sapiens, UniProt P37231); assay type: functional;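 further: agonist potency for raising coactivator recruitment to the receptor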
Sequence of Peroxisome proliferator-activated receptor gamma/Nuclear receptor coactivator 2 (P37231 whole entry): as the sequence (P37231 whole entry) above
Sequence of Peroxisome proliferator-activated receptor gamma/Nuclear receptor coactivator 2 (Q15596 whole entry, further chain): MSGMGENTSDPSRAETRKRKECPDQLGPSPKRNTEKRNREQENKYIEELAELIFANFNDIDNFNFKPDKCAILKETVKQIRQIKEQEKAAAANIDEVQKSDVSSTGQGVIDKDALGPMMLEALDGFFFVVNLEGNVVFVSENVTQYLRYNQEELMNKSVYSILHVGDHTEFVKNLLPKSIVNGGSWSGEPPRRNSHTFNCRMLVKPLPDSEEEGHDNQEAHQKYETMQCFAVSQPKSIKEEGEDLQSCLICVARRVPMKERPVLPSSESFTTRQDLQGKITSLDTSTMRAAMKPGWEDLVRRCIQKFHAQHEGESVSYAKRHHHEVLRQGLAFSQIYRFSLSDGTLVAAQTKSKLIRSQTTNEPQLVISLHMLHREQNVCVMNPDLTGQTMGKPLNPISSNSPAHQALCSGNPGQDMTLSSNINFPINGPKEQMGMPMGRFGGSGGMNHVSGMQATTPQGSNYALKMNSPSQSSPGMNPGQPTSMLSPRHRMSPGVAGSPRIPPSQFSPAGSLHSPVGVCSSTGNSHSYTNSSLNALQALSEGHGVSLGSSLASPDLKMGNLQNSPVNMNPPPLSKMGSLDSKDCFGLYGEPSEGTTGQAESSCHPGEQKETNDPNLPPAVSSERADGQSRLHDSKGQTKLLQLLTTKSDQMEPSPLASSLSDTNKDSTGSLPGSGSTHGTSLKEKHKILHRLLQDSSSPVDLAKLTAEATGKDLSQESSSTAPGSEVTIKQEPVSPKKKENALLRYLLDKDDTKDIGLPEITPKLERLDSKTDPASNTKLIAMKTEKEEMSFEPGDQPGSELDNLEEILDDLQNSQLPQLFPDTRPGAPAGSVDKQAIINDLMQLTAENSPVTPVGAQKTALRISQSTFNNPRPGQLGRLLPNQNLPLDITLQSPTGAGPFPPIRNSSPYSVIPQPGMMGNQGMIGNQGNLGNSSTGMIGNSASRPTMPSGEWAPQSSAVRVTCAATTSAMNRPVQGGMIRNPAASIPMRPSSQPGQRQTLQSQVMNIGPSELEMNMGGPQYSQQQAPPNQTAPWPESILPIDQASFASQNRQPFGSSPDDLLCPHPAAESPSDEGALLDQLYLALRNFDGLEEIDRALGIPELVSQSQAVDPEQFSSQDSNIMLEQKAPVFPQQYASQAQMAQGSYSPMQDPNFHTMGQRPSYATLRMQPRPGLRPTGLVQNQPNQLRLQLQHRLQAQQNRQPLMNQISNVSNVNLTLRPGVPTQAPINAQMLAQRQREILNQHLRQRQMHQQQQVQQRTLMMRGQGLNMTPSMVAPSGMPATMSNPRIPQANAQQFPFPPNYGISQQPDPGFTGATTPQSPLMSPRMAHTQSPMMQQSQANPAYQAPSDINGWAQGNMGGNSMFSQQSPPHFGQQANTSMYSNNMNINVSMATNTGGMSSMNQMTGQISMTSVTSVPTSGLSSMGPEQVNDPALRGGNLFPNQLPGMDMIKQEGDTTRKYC

[18] = blockers of bursicon-stimulated LGR2 cAMP reporter – cell-based, HEK293, CRE-luciferase reporter, cherry pick, set 2, dose response (AID 743343); assay type: functional;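 further: transfected cells were stimulated with diluted bursicon conditioned medium after compound addition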
Estrogen receptor beta = Estrogen receptor beta (Homo sapiens, UniProt Q92731);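 further: recombinant ER-beta bound to coactivator SRC1 peptide in presence of estradiol agonist; inhibitors block coactivator peptide binding and lower the FRET signal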
[19] = target: T4, Sentrin-specific protease 6 (Homo sapiens, UniProt Q9GZR1); assay type: functional;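 further: Luminescence-based dose-response confirmatory assay of SENP6 inhibition, following up an ultra-high-throughput screen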
T4 sequence (Q9GZR1 whole entry): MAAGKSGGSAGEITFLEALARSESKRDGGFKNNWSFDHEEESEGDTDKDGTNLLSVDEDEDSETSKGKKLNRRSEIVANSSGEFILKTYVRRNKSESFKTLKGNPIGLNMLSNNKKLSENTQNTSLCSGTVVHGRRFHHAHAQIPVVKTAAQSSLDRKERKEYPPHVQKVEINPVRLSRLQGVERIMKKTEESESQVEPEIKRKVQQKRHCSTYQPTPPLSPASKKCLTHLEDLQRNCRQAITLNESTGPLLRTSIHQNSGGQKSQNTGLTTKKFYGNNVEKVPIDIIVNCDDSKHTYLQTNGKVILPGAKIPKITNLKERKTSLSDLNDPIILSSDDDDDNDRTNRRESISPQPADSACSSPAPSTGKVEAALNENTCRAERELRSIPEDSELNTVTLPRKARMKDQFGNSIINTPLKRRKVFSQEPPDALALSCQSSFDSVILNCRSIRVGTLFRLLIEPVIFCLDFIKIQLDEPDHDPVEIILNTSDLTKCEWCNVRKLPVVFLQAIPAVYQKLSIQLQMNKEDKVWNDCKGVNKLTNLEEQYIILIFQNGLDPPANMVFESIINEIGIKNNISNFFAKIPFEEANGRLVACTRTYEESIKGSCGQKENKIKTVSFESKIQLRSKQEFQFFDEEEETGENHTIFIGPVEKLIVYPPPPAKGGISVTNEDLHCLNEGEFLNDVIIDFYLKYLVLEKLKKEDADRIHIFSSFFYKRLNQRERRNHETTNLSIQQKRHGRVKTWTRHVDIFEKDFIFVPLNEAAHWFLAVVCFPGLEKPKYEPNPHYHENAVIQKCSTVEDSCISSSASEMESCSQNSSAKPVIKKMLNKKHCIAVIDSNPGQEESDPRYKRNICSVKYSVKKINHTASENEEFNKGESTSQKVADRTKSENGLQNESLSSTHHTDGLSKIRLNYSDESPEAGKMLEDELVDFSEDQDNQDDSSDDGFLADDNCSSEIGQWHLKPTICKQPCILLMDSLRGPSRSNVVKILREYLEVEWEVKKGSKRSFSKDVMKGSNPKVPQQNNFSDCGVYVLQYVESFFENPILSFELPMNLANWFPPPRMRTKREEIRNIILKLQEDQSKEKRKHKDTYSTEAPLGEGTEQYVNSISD

Caspase-3 = target: T5, Caspase-3 (Homo sapiens, UniProt P42574); assay type: functional;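 further: Dose-response selectivity test against caspase-3 for candidate inhibitors of sentrin-specific proteases (SENPs)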
T5 sequence (P42574 whole entry): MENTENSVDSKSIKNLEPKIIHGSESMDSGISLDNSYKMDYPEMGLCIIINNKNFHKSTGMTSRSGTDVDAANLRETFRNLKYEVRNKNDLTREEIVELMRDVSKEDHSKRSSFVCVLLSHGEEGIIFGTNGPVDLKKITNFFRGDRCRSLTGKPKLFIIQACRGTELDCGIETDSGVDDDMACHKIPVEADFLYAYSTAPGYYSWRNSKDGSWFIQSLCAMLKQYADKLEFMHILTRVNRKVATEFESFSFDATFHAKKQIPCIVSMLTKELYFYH

[20] = target: NAD-dependent protein deacylase sirtuin-5, mitochondrial (Homo sapiens, UniProt Q9NXA8); experiment: sirtuin-5 deacylation blockers, concentration series – biochemical, fluorescence imaging, cherry-pick, set 5, dose response (AID 720591);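 further: desuccinylation of succinyl peptide AMC substrate read as fluorescence after trypsin release; potency of inhibitors that lower fluorescence and may act on trypsin instead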
Sequence of NAD-dependent protein deacylase sirtuin-5, mitochondrial (Q9NXA8 whole entry): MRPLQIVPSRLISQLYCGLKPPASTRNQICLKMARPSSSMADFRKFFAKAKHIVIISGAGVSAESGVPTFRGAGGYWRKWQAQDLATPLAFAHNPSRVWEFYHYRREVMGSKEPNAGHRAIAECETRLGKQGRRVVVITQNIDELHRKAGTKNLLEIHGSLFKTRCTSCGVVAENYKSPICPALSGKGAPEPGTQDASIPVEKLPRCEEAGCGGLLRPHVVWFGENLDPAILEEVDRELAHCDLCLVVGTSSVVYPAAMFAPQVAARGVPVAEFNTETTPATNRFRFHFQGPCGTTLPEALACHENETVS

[21] = target: T6, Sentrin-specific protease 7 (Homo sapiens, UniProt Q9BQF6); assay type: functional;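 further: Luminescence-based dose-response confirmation of ultra-high-throughput screening hits, measuring inhibition of SENP7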
T6 sequence (Q9BQF6 whole entry): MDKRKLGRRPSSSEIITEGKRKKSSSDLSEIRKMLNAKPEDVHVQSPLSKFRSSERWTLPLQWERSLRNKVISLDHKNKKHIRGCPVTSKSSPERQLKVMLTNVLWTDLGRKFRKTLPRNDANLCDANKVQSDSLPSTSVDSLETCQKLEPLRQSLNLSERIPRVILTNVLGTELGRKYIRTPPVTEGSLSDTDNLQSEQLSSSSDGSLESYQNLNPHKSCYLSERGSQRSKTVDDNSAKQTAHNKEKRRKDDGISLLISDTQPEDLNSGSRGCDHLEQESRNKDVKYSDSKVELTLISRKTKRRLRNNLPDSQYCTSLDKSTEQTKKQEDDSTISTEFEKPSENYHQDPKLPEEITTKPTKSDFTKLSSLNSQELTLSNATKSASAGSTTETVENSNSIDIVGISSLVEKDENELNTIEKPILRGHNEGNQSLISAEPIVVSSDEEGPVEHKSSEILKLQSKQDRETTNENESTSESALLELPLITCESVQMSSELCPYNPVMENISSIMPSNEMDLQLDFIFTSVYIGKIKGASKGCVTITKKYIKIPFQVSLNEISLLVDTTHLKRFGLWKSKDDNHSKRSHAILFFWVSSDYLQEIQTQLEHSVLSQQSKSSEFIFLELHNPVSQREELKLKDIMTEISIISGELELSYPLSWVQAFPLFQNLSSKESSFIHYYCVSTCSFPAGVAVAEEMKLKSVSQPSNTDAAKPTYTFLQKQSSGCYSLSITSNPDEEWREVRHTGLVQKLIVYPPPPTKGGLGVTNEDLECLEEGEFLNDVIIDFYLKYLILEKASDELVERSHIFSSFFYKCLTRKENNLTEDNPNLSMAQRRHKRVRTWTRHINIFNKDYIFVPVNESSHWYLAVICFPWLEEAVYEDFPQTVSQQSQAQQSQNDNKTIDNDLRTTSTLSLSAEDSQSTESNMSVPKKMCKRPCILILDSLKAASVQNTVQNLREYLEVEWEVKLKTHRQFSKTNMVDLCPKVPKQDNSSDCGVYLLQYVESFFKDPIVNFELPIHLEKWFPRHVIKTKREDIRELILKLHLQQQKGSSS

[22] = target: T7, Sentrin-specific protease 8 (Homo sapiens, UniProt Q96LD8); assay type: functional;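 further: luminescence read-out of SENP8 inhibition, dose-response confirmation following an ultra-high-throughput screen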
T7 sequence (Q96LD8 whole entry): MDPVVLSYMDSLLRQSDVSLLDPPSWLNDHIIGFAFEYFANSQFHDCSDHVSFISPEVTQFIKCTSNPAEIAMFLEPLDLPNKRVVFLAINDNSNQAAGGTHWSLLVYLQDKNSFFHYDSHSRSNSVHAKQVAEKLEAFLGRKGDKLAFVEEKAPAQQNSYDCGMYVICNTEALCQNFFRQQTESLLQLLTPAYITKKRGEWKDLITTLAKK

[23] = HIV-1 Vif–A3G interaction blockers – biochemical, TR-FRET, GST-Vif 1-94, biotin-A3G peptide, dose response retest, primary screen (AID 1117319); assay type: functional;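 further: TR-FRET signal of purified GST-Vif binding a biotinylated A3G peptide; inhibitors lower the FRET signal by blocking Vif and A3G binding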
Protein Tat = Protein Tat (Human immunodeficiency virus type 1 group M subtype B (isolate HXB2)(HIV-1), UniProt P04608); assay type: functional;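 further: tat binding to TAR RNA read out by fluorescence polarization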
Sequence of Protein Tat (P04608 whole entry): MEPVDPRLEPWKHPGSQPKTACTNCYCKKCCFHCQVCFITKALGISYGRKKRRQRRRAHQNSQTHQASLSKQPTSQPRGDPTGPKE

## Cc1ccc(C(=O)OCc2cc3ccccc3nc2O)cc1
[1]
  IC50: > 93.1 µM (not active)

## CC(=O)NC(=S)Nc1ccccc1C(=O)NC1CCCCC1
[2]
  EC50: > 67.6 µM (inactive)
[3]
  IC50: > 67.6 µM (inactive)

## COc1ccc(OC2C=CC(C#Cc3ccccc3)OC2CO)cc1 (configuration not stated)
Cytochrome P450 2C19 [4]
  AC50: 3.98 µM (inconclusive)

## O=c1cc(CN2CCN(C/C=C/c3ccccc3)CC2)c2cc(O)ccc2o1
[5]
  EC50: < 0.1 µM (active)
Cells [6]
  EC50: 0.101 µM (active)
[7]
  EC50: > 60 µM (not active)

## CC(=O)[C@@H]1[C@@H]2C(=O)N(c3ccc(F)c(Cl)c3)C(=O)[C@@H]2C2c3ccccc3C=CN21 (some centres not stated)
[8]
  IC50: > 100 µM (not active)

## O=C(CCNC(=O)c1ccccc1Cl)Nc1ccc(Br)c(C(F)(F)F)c1
[2]
  EC50: > 67.5 µM (inactive)
[3]
  IC50: > 67.5 µM (inactive)

## NNc1nc(-c2ccccc2)nc2sc3c(c12)CCCC3
[9]
  EC50: > 67.5 µM (inactive)
Cells [10]
  EC50: > 67.5 µM (inactive)

## Cc1ccc(NC(=O)c2sc3ccccc3c2Cl)nc1
[11]
  EC50: 52 µM (not active)
[12]
  EC50: 53.2 µM (not active)
[9]
  EC50: > 67.5 µM (inactive)
Cytochrome P450 2C19 [13]
  AC50: 7.94 µM (inconclusive)
[14]
  AC50: 3.36 µM (active)
[15]
  AC50: > 52 µM (inactive)
[16]
  AC50: 50.8 µM (active)
Cytochrome P450 2D6
  AC50: 3.16 µM (inconclusive)
Cells [10]
  EC50: > 67.5 µM (inactive)
[17]
  EC50: 41.5 µM (not active)
[18]
  AC50: 2.52 µM (active)

## CCN1CCC(C(N)=O)CC1
Estrogen receptor beta
  IC50: > 50 µM (not active)

## Cc1c(NC(=O)c2ccc(NC(=O)C3CC3)cc2)cccc1C(=O)O
[19]
  IC50: 18.5 µM (active)
Caspase-3
  IC50: 43.8 µM (active)
[20]
  AC50: 10.7 µM (active)
[21]
  IC50: 6.21 µM (active)
[22]
  IC50: 25.8 µM (active)

## COC(=O)[C@]12CCCCC=C1N(Cc1ccc(Cl)cc1Cl)C(=O)[C@H](CC(=O)NCc1cccc(C(F)(F)F)c1)C2
[20]
  AC50: > 30 µM (inactive)

## O=C(N/N=C/c1ccc[nH]1)c1cccnc1
[23]
  IC50: > 100 µM (active)
Protein Tat
  IC50: > 100 µM (active)
